Measurements reported in the supplement of paper PMC13380429.
± gives the standard deviation of the averaged measurements.

Experiments:
Conditions in all cases: 72 h
[1] = test system: Calu-3; experiment: drug sensitivity score (DSS) for viability; higher = more toxic; extreme values may be limits of the assay
[2] = test system: Vero E6; experiment: as above
[3] = test system: U2OS; experiment: as above
[4] = test system: HepG2; experiment: as above
[5] = test system: Caco-2; experiment: as above
[6] = test system: Calu-3; experiment: cell viability relative to DMSO; higher = less toxic
[7] = test system: Vero E6; experiment: as above
[8] = test system: U2OS; experiment: as above
[9] = test system: HepG2; experiment: as above
[10] = test system: Caco-2; experiment: as above
[11] = test system: Calu-3; experiment: relative viability EC50 (midpoint between 100% and the lowest measured viability); higher = less toxic
[12] = test system: Vero E6; experiment: as above
[13] = test system: U2OS; experiment: as above
[14] = test system: HepG2; experiment: as above
[15] = test system: Caco-2; experiment: as above

Row | SMILES | drug sensitivity score [1] | drug sensitivity score [2] | drug sensitivity score [3] | drug sensitivity score [4] | drug sensitivity score [5] | cell viability ([6]; 1 nM) [%] | cell viability ([6]; 10 nM) [%] | cell viability ([6]; 100 nM) [%] | cell viability ([6]; 1000 nM) [%] | cell viability ([6]; 10000 nM) [%] | cell viability ([7]; 1 nM) [%] | cell viability ([7]; 10 nM) [%] | cell viability ([7]; 100 nM) [%] | cell viability ([7]; 1000 nM) [%] | cell viability ([7]; 10000 nM) [%] | cell viability ([8]; 1 nM) [%] | cell viability ([8]; 10 nM) [%] | cell viability ([8]; 100 nM) [%] | cell viability ([8]; 1000 nM) [%] | cell viability ([8]; 10000 nM) [%] | cell viability ([9]; 1 nM) [%] | cell viability ([9]; 10 nM) [%] | cell viability ([9]; 100 nM) [%] | cell viability ([9]; 1000 nM) [%] | cell viability ([9]; 10000 nM) [%] | cell viability ([10]; 1 nM) [%] | cell viability ([10]; 10 nM) [%] | cell viability ([10]; 100 nM) [%] | cell viability ([10]; 1000 nM) [%] | cell viability ([10]; 10000 nM) [%] | relative viability EC50 [11] [µM] | relative viability EC50 [12] [µM] | relative viability EC50 [13] [µM] | relative viability EC50 [14] [µM] | relative viability EC50 [15] [µM]
1 | Oc1ccc2c3c1O[C@H]1[C@@H](O)CC[C@@]4(O)[C@@H](C2)N(CC2CCC2)CC[C@]314 [nalbuphine] | 0 | 0 | 0 | 0 | 0 | 103 | 95.2 | 95.9 | 117 | 105 | 99.9 | 104 | 95.3 | 102 | 96.5 | 97.7 | 96.5 | 98.2 | 92.4 | 96.9 | 107 | 99.2 | 110 | 95.9 | 91.4 | 102 | 102 | 101 | 88.4 | 98.6 | > 10 | > 10 | > 10 | > 10 | > 10
2 | COc1ccccc1N1CCN(CC(O)COc2cc(OC)c(OC)c(OC)c2)CC1 (stereo not given) [enciprazine] | 0 | 0 | 0 | 0 | 0 | 101 | 106 | 100 | 98.1 | 105 | 100 | 101 | 101 | 99.1 | 99.4 | 94.9 | 98.2 | 95.1 | 96 | 94.9 | 98.3 | 99.9 | 91.4 | 94.2 | 96 | 104 | 97.9 | 89.3 | 93.8 | 99.8 | > 10 | > 10 | > 10 | > 10 | > 10
3 | NC[C@@H]1CC[C@@H](N)[C@@H](O[C@H]2[C@H](O)[C@@H](O[C@H]3O[C@H](CO)[C@@H](O)[C@H](N)[C@H]3O)[C@H](N)C[C@@H]2N)O1 [dibekacin] | 0 | 0 | 0 | 0 | 0 | 101 | 91.9 | 114 | 101 | 95 | 103 | 103 | 98.1 | 101 | 101 | 104 | 97.9 | 101 | 98 | 104 | 96.5 | 101 | 89.1 | 102 | 94.5 | 96 | 94.4 | 101 | 93.5 | 106 | > 10 | > 10 | > 10 | > 10 | > 10
4 | NC[C@@H](O)CC(=O)O [aminohydroxybutyric-acid] | 0 | 0 | 0 | 0 | 0 | 98.4 | 103 | 97.7 | 95.1 | 104 | 98.6 | 91.9 | 93.3 | 92.4 | 102 | 93.6 | 99.7 | 96.4 | 106 | 102 | 102 | 91.7 | 108 | 97.2 | 104 | 92.1 | 91 | 86.2 | 103 | 105 | > 10 | > 10 | > 10 | > 10 | > 10
5 | CC1CNc2c(cccc2S(=O)(=O)N[C@@H](CCCNC(=N)N)C(=O)N2CC[C@@H](C)C[C@@H]2C(=O)O)C1 (mixture of isomers) [argatroban] | 0 | 0 | 0 | 0 | 0 | 91.3 | 97.4 | 98.7 | 93.8 | 94.6 | 97.7 | 99.1 | 99.2 | 93.4 | 102 | 98.2 | 104 | 98.9 | 102 | 96.2 | 113 | 93.7 | 96.1 | 87.4 | 97.8 | 96.5 | 97.1 | 86.3 | 105 | 94.3 | > 10 | > 10 | > 10 | > 10 | > 10
6 | COC(=O)c1c(C)[nH]c(C)c1C(=O)c1ccccc1Cc1ccccc1 | 0 | 0 | 0 | 0 | 0.3 | 90.1 | 106 | 89.8 | 108 | 90.1 | 100 | 101 | 98 | 94.1 | 99.8 | 99.5 | 103 | 87.8 | 102 | 92.1 | 99.2 | 94.8 | 109 | 95.8 | 104 | 98.6 | 97.1 | 98.1 | 99.9 | 84.8 | > 10 | > 10 | > 10 | > 10 | > 10
7 | c1ccc(Oc2cccnc2)cc1 [CI-844] | 0 | 0 | 0 | 0 | 0 | 104 | 101 | 89.9 | 94.1 | 106 | 101 | 103 | 100 | 99.8 | 98.7 | 100 | 103 | 94.9 | 97.2 | 96.1 | 102 | 103 | 94.3 | 97.4 | 106 | 96 | 97.6 | 90.4 | 93.1 | 93.2 | > 10 | > 10 | > 10 | > 10 | > 10
8 | COc1cc(OC)c(C(=O)CCCCN2CCC3(CC2)NC(=O)NC3=O)cc1NS(=O)(=O)c1ccc(C(F)(F)F)cc1 | 0 | 0 | 0 | 0 | 0 | 98.2 | 108 | 81.2 | 93.9 | 93.6 | 103 | 106 | 102 | 99.5 | 99.7 | 98.8 | 106 | 99.7 | 101 | 94.7 | 102 | 111 | 95.3 | 89.1 | 105 | 102 | 103 | 107 | 98.7 | 93.6 | > 10 | > 10 | > 10 | > 10 | > 10
9 | CC(ONC(=O)c1cc(C(F)(F)F)cc(C(F)(F)F)c1)C(=O)Nc1ccc(Cl)cc1 (stereo not given) [CCG-1423] | 0 | 0 | 0 | 0 | 0 | 96.4 | 89.5 | 85 | 95.1 | 98.7 | 101 | 99.4 | 99 | 105 | 99.2 | 100 | 98.6 | 105 | 99.6 | 101 | 108 | 99.4 | 94.9 | 96.8 | 89.2 | 99.9 | 97.9 | 91.4 | 97.4 | 88.6 | > 10 | > 10 | > 10 | > 10 | > 10
10 | NC(=O)c1ccc(F)c2c1C[C@@H](N(C1CCC1)C1CCC1)CO2 [robalzotan] | 0 | 0 | 0 | 0 | 0 | 98.8 | 110 | 94.5 | 91.2 | 97.7 | 102 | 99.8 | 107 | 94.4 | 103 | 102 | 107 | 97.7 | 105 | 99.1 | 105 | 101 | 99.5 | 96.9 | 100 | 92.7 | 98.3 | 97.5 | 105 | 99.5 | > 10 | > 10 | > 10 | > 10 | > 10
11 | COC1=C(OC)C(=O)C(CCCCCCCCCCO)=C(C)C1=O [idebenone] | 0 | 0 | 0 | 0 | 0.1 | 100 | 104 | 90.3 | 98 | 95.5 | 102 | 100 | 96.9 | 97.8 | 97.7 | 98.6 | 105 | 94.9 | 97.7 | 93.8 | 96.1 | 95.6 | 99.4 | 95.9 | 97.7 | 96.4 | 101 | 103 | 98.4 | 88.6 | > 10 | > 10 | > 10 | > 10 | > 10
12 | CN/C(=N\S(=O)(=O)c1ccc(Cl)cc1)N1C[C@H](c2ccccc2)C(c2ccc(Cl)cc2)=N1 (racemic) [SLV-319-(+/-)] | 0 | 0 | 0 | 0.1 | 0.2 | 107 | 98.5 | 100 | 118 | 111 | 98.1 | 105 | 100 | 91.3 | 94.8 | 99.9 | 99.1 | 102 | 98.9 | 93.1 | 108 | 94.2 | 99.9 | 89.6 | 93.7 | 95.1 | 96.3 | 100 | 103 | 83.1 | > 10 | > 10 | > 10 | > 10 | > 10
13 | C[C@@H](C(=O)O)c1ccc(-c2ccccc2)c(F)c1 (racemic) [flurbiprofen-(+/-)] | 0.0333 ± 0.058 | 0 | 0 | 0 | 0 | 92.6 ± 3.4 | 98.7 ± 5.3 | 93.3 ± 9.1 | 96.3 ± 3.1 | 98.3 ± 12 | 100 ± 1.8 | 100 ± 1.6 | 97.15 ± 0.92 | 95.7 ± 6.5 | 97.2 ± 1.3 | 101.1 ± 1 | 100 ± 7.2 | 99.4 ± 2.7 | 99 ± 2.2 | 96.4 ± 5 | 94.95 ± 0.21 | 101 ± 9.9 | 94.9 ± 4 | 101 ± 2.8 | 100 ± 1.4 | 98.7 ± 8 | 95.2 ± 2.5 | 95.5 ± 4 | 96 ± 3.3 | 96 ± 8.2 | > 10 | > 10 | > 10 | > 10 | > 10
14 | C#CCN[C@@H]1CCc2ccccc21 [rasagiline] | 0 | 0 | 0 | 0 | 0 | 87 | 96.3 | 100 | 97.3 | 99.6 | 106 | 104 | 102 | 104 | 97.1 | 99.8 | 105 | 97.5 | 106 | 97.2 | 103 | 117 | 110 | 104 | 99.6 | 97 | 98 | 91.5 | 99 | 94.2 | > 10 | > 10 | > 10 | > 10 | > 10
